Where two headings read alike, the source gives them in different places. Square brackets hold non-standard residues; d marks the D form. Peptide text beside a SMILES is read from it. AEEA = NCCOCCOCC(=O)O
Tests used:
[1] = test system: P. aeruginosa (ATCC® 27853™); experiment: Mouse model of Pseudomonas keratitis (CFU/eye); format: in vivo, Pseudomonas aeruginosa in C57/BL mice; conditions: 10 and 20 mg/ml groups together
Experimental: A circular wound (2 mm) was created on the mouse cornea by removing the epithelium and infecting the wound with 10^5 CFU of P. aeruginosa (ATCC® 27853™ (American Type Culture Collection, Manassas, Va.)). Infected wounds were treated with saline or saline containing indicated concentrations of peptide every 15 minutes for 2 hours, then every 30 minutes for 3 hours on the first day. Infected wounds were treated twice on the second day and once on the third day. Mice were killed at 48 hours post-infection, and the colony forming units per eye (CFU/eye) were quantified. The means are plotted and are representative of 5 to 9 mice per group. Mann Whitney test was performed for each group as compared to the saline control group.
For FIGS. 15-17, in vivo bactericidal activity of the peptides was also investigated using the standard Pseudomonas keratitis model in the mouse eye (FIGS. 15-17). Peptides 120-146QR-5RMP (SEQ ID NO: 32), 120-146WH (SEQ ID NO: 31), and 120-146WR (SEQ ID NO: 30) were applied topically at doses of 2, 5, 10, and 20 mg/ml to the wounded cornea that had been infected with 10^5 CFU of Pseudomonas aeruginosa. The efficacies of the peptides were compared to treatment with the vehicle control. Mice were euthanized at 48 hours post infection, and the CFU/eye were quantified.

[2] = test system: Pseudomonas aeruginosa ATCC® 27853™; format: cell-based; design: Effects of Peptide Compounds on Pseudomonas aeruginosa ATCC ® 27853 ™: unit not given here; conditions: Table 6
Experimental: (§1) In vitro bactericidal activity: The three peptide compounds BCC01-5RMP (SEQ ID NO: 21), BCC02-5RMP (SEQ ID NO: 22), and BCC03-5RMP (SEQ ID NO: 23) were assayed for in vitro bactericidal activity against Pseudomonas aeruginosa, Escherichia coli, Salmonella typhimurium, and Acinetobacter baumannii. The starting inoculum for all experiments was 1×10^6 colony forming units (CFU)/ml. The CFU remaining at the end of 60 to 180 minute incubation was determined, and the data plotted as a log reduction in CFU/ml.
(§2) For FIGS. 10-13, in vitro bactericidal assays were performed using a starting inoculum of 1×10^6 CFU/ml of the bacterial suspension. The CFU remaining at the end of the 60-180 minute incubation was determined, and the data was plotted as log reduction in CFU/ml.
(§3) In particular, each of the test peptides (CAP37 peptides 120-146WR, 120-146WH, and 95-122 (SEQ ID NOs: 30, 31, and 26, respectively)) was used at 25, 12.5, 6.25, and 3.12 μM. Gentamicin was used at 4 μg/ml. 1×10^6/ml Acinetobacter baumannii ATCC® BAA-747™ or Pseudomonas aeruginosa ATCC® 27853™ (American Type Culture Collection, Manassas, Va.) were incubated with the peptides, negative buffer control (tryptone saline), and positive control gentamicin at pH 5.5 or 7.2. A 60 minute incubation was used for Acinetobacter baumannii ATCC® BAA-747™, while a 180 minute incubation was used for Pseudomonas aeruginosa ATCC® 27853™. 50 μl aliquots were plated out on agar plates and incubated overnight. Colony forming units were counted after overnight incubation and CFU/ml calculated.
For FIG. 14, 1×10^6/ml Pseudomonas aeruginosa ATCC® 27853™ were incubated with each of the test peptides (CAP37 peptides 120-146WR, 120-146WH, 120-146QR, 120-146QH, 120-146QR-5RMP, and 120-146QH-5RMP (SEQ ID NOs: 30, 31, 28, 29, 32, and 33, respectively)) at 150, 75, and 37.5 μg/ml, or negative buffer control (tryptone saline), for 180 minutes at pH 5.5. 50 μl aliquots were plated out on agar plates and incubated overnight. Colony forming units were counted after overnight incubation and CFU/ml calculated.

RAW264.7 cells = experiment: LPS neutralization: TNF-α release from LPS-stimulated RAW264.7 cells; format: cell-based, mouse
Experimental: (§4) The well-characterized response of RAW264.7 macrophage cells was used to produce tumor necrosis-factor-alpha (TNF-α) in response to LPS to determine whether the peptides could dampen the release of this cytokine. […] Importantly, pre-treatment (3 hours prior to LPS addition) as well as post-treatment of the RAW264.7 cells (3 hours post LPS addition) with peptide dampened the cytokine release. […] The finding that the novel peptides bind and neutralize the effect of Pseudomonas LPS is of critical importance since this ensures that the novel therapeutic peptide compounds described herein will not only kill the bacteria, but will also neutralize the LPS endotoxin released by the bacteria which plays such an important role in the rapid progression of sepsis.
(§5) BCC01-5RMP (SEQ ID NO: 21), BCC02-5RMP (SEQ ID NO: 22), and BCC03-5RMP (SEQ ID NO: 23) were tested for their ability to bind lipopolysaccharide (LPS) using the limulus amebocyte lysate method (LAL). […] There was no statistical difference in their ability to bind LPS using the LAL technique. The ability of the peptides to neutralize LPS was assessed by determining their ability to attenuate the release of tumor necrosis factor-alpha (TNF-α) from LPS-stimulated RAW264.7 cells (a mouse macrophage cell line). […] No significant differences were observed between the three peptides to neutralize LPS as measured by cytokine release.

Salmonella typhimurium = experiment: In vitro bactericidal assay; format: cell-based
Experimental: as §1

Pseudomonas LPS = experiment: LPS binding, Limulus Amebocyte Lysate (LAL) assay
Experimental: as §4, §5

[3] = test system: Acinetobacter baumannii ATCC® BAA-747™; format: cell-based; conditions: starting inoculum 1×10^6 CFU/ml; 60 to 180 minute incubation
Experimental: as §1, §2, §3

[4] = test system: E. coli ATCC® strain 25922™; format: cell-based, Escherichia coli; design: unit not given here; conditions: Peptide Conc 1.56 μg/ml; Table 6
Experimental: as §1

| Compound | mice with no viable bacteria in the eye after treatment [1] | Effects of Peptide Compounds on Pseudomonas aeruginosa ATCC ® 27853 ™ ([2]; Peptide Conc 25 μg/ml) | Effects of Peptide Compounds on Pseudomonas aeruginosa ATCC ® 27853 ™ ([2]; Peptide Conc 50 μg/ml) | Effects of Peptide Compounds on Pseudomonas aeruginosa ATCC ® 27853 ™ ([2]; Peptide Conc 100 μg/ml) | Effects of Peptide Compounds on Pseudomonas aeruginosa ATCC ® 27853 ™ ([2]; Peptide Conc 200 μg/ml) | release of TNF-α in response to Pseudomonas LPS (RAW264.7 cells) | activity against Salmonella typhimurium (Salmonella typhimurium) | binding of Pseudomonas LPS (LAL) (Pseudomonas LPS) | activity against Acinetobacter baumannii [3] | Effects of Peptide Compounds on Escherichia coli ATCC ® 25922 ™ [4] |
| --- | --- | --- | --- | --- | --- | --- | --- | --- | --- | --- |
| CC(C)C[C@H](NC(=O)[C@H](CCCNC(=N)N)NC(=O)CNC(=O)CNC(=O)[C@H](CO)NC(=O)[C@H](CCCNC(=N)N)NC(=O)[C@H](CCC(N)=O)NC(=O)[C@H](CO)NC(=O)CNC(=O)[C@H](Cc1c[nH]c2ccccc12)NC(=O)CNC(=O)[C@H](C)NC(=O)[C@@H](NC(=O)[C@H](CCC(N)=O)NC(=O)[C@H](CS)NC(=O)[C@H](CCCNC(=N)N)NC(=O)[C@@H](NC(=O)CNC(=O)[C@H](CCCNC(=N)N)NC(=O)[C@H](CCCNC(=N)N)NC(=O)[C@H](CCCNC(=N)N)NC(=O)[C@H](CCCNC(=N)N)NC(=O)COCCOCCNC(=O)COCCOCCN)[C@@H](C)O)C(C)C)C(=O)N[C@@H](CO)C(=O)N[C@@H](CCCNC(=N)N)C(=O)N[C@@H](Cc1ccccc1)C(=O)N1CCC[C@H]1C(=O)N[C@@H](CCCNC(=N)N)C(=O)N[C@@H](Cc1ccccc1)C(=O)N[C@H](C(=O)N[C@@H](CC(N)=O)C(=O)N[C@H](C(=O)N[C@@H](CCCNC(=N)N)C(=O)O)C(C)C)C(C)C [120-146QR-5RMP] (H-[AEEA][AEEA]RRRRGTRCQVAGWGSQRSGGRLSRFPRFVNVR-OH; N-terminus and C-terminus assumed) | Six of the 10 mice |  |  |  |  |  |  |  |  |  |
| CC[C@H](C)[C@H](NC(=O)[C@H](CC(C)C)NC(=O)[C@H](C)NC(=O)CNC(=O)CNC(=O)[C@H](CS)NC(=O)[C@H](Cc1ccccc1)NC(=O)[C@H](Cc1c[nH]cn1)NC(=O)[C@H](CCCNC(=N)N)NC(=O)CNC(=O)[C@H](CCC(N)=O)NC(=O)[C@H](CC(N)=O)NC(=O)[C@H](CCCNC(=N)N)NC(=O)[C@H](CCCNC(=N)N)NC(=O)[C@H](CCCNC(=N)N)NC(=O)[C@H](CCCNC(=N)N)NC(=O)COCCOCCNC(=O)COCCOCCN)C(=O)N[C@@H](Cc1c[nH]cn1)C(=O)N[C@@H](C)C(=O)N[C@@H](CCCNC(=N)N)C(=O)N[C@@H](Cc1ccccc1)C(=O)N[C@H](C(=O)N[C@@H](CCSC)C(=O)N[C@H](C(=O)N[C@@H](C)C(=O)N[C@@H](C)C(=O)N[C@@H](CO)C(=O)N[C@@H](CO)C(=O)N[C@@H](Cc1ccccc1)C(=O)N[C@@H](CCC(N)=O)C(=O)N[C@@H](CCCNC(=N)N)C(=O)O)[C@@H](C)O)C(C)C [BCC03-5RMP] (H-[AEEA][AEEA]RRRRNQGRHFCGGALIHARFVMTAASSFQR-OH; N-terminus assumed) |  | 100.0 | 100.0 | 100.0 | 100.0 | attenuate the release of TNF-α | strong, but lesser activity | bound Pseudomonas LPS | most active | 23.0 |
